{"source": "patent EP0136745A2", "about": "“Benzoyl urea derivatives having anti-tumor activity” (DUPHAR INTERNATIONAL RESEARCH B.V, priority 1983, dated 1985)", "data": [{"test_system": "B16 melanoma cells", "assay": "Sensitivity of B16 melanoma cells, in vitro cell growth inhibition (Coulter Counter cell count)", "assay_type": "cell-based", "settings": "Mus musculus, dosage of 500 /ug/ml, aqueous suspension, incubation 20 hours at 37°C, cells counted 48 hours after beginning of incubation, inhibition of cell growth with respect to control", "method": "The anti-tumor activity was tested in an in vitro test. In this test the sensitivity of B16 melanoma cells to the new compounds according to the invention was determined.\nB16 melanoma cells grow as a \"monolayer\". The doubling time of said cells in a cell culture is 12-16 hours.\nOn day O a quantity of 5 x 10^4 B 16 melanoma cells is provided in each cell culture dish.\nOn day 1 the compounds to be tested are vortexed in the presence of glass-beads. The compound to be tested is then addei to the dishes comprising melanoma cells in the desired quantity. Incubation takes place in a CO2--incubator at 37°C for 20 hours. The incubation is terminated by removing the culture medium with therein the compound to be tested, after which the cells are washed twice and fresh medium is added.\nForty-eight hours after the beginninq of the incubation the quantity of cells in each dish is measured by means of a microcell Coulter Counter. The results thus obtained are expressed by indicating the activity cf the compounds as 1+, 2+, 3+, 4+ or 5+, which has the following meaning: • 1+ : cel growth is inhibited 1- 20% with respect to control. • 2+ : cel growth is inhibited 20- 40% with respect to control. • 3+ : cel growth is inhibited 40- 60% with respect to control. • 4+ : cel growth is inhibited 60- 80% with respect to control. • 5+ : cel growth is inhibited 80-100% with respect to control.\nVarious compounds according to the invention were tested in the above-described manner in a dosage of 500 /ug/ml in the form of an aqueous suspension.", "units": {"inhibition at 500 µg/mL": "%"}, "values": [{"smiles": "O=C(NC(=O)c1c(Cl)ccc(O)c1Cl)Nc1ccc(Cl)cc1", "note": "[Compound 1]", "inhibition at 500 µg/mL": "80 to 100"}, {"smiles": "CC(=O)Oc1ccc(Cl)c(C(=O)NC(=O)Nc2ccc(Cl)cc2)c1Cl", "note": "[Compound 2]", "inhibition at 500 µg/mL": "60 to 80"}, {"smiles": "O=C(NC(=O)c1c(Cl)ccc(OCc2ccccc2)c1Cl)Nc1ccc(Cl)cc1", "note": "[Compound 3]", "inhibition at 500 µg/mL": "40 to 60"}, {"smiles": "O=C(NC(=O)c1c(Cl)ccc(O)c1Cl)Nc1ccc(C(F)(F)F)cc1", "note": "[Compound 4]", "inhibition at 500 µg/mL": "80 to 100"}, {"smiles": "CC(=O)Oc1ccc(Cl)c(C(=O)NC(=O)Nc2ccc(C(F)(F)F)cc2)c1Cl", "note": "[Compound 5]", "inhibition at 500 µg/mL": "80 to 100"}, {"smiles": "O=C(NC(=O)c1c(O)cccc1Cl)Nc1ccc(Cl)cc1", "note": "[Compound 6]", "inhibition at 500 µg/mL": "60 to 80"}, {"smiles": "CC(=O)Oc1cccc(Cl)c1C(=O)NC(=O)Nc1ccc(Cl)cc1", "note": "[Compound 7]", "inhibition at 500 µg/mL": "80 to 100"}, {"smiles": "CCC(=O)Oc1cccc(Cl)c1C(=O)NC(=O)Nc1ccc(Cl)cc1", "note": "[Compound 8]", "inhibition at 500 µg/mL": "60 to 80"}, {"smiles": "O=C(NC(=O)c1cc([N+](=O)[O-])ccc1O)Nc1ccc(Cl)cc1", "note": "[Compound 9]", "inhibition at 500 µg/mL": "60 to 80"}, {"smiles": "O=C(NC(=O)c1ccccc1O)Nc1ccc([N+](=O)[O-])cc1Cl", "note": "[Compound 10]", "inhibition at 500 µg/mL": "60 to 80"}, {"smiles": "O=C(NC(=O)c1c(O)cccc1O)Nc1ccc(Cl)cc1", "note": "[Compound 11]", "inhibition at 500 µg/mL": "80 to 100"}, {"smiles": "O=C(NC(=O)c1cc(I)cc(I)c1O)Nc1ccc(Cl)cc1", "note": "[Compound 12]", "inhibition at 500 µg/mL": "80 to 100"}, {"smiles": "Cc1cc(Cl)ccc1NC(=O)NC(=O)c1c(O)cccc1O", "note": "[Compound 13]", "inhibition at 500 µg/mL": "60 to 80"}, {"smiles": "CC(=O)Oc1cccc(Cl)c1C(=O)NC(=O)Nc1ccc(OC(F)(F)C(F)F)cc1", "note": "[Compound 14]", "inhibition at 500 µg/mL": "80 to 100"}, {"smiles": "CC(=O)Oc1cccc(Cl)c1C(=O)NC(=O)Nc1ccc(OC2CC(C)CCC2C(C)C)cc1", "note": "(stereo not drawn) [Compound 15]", "inhibition at 500 µg/mL": "60 to 80"}, {"smiles": "CC(=O)Oc1cccc(Cl)c1C(=O)NC(=O)Nc1ccc(C(=O)N2CCCCC2)cc1", "note": "[Compound 16]", "inhibition at 500 µg/mL": "80 to 100"}, {"smiles": "O=C(NC(=O)c1ccccc1OC(=O)c1ccccc1)Nc1ccc(Cl)cc1", "note": "[Compound 17]", "inhibition at 500 µg/mL": "60 to 80"}, {"smiles": "O=C(NC(=O)c1cc(Cl)c(O)c(Cl)c1)Nc1ccc(Cl)cc1", "note": "[Compound 18]", "inhibition at 500 µg/mL": "60 to 80"}, {"smiles": "CC(=O)Oc1c(Cl)cc(C(=O)NC(=O)Nc2ccc(Cl)cc2)cc1Cl", "note": "[Compound 19]", "inhibition at 500 µg/mL": "60 to 80"}, {"smiles": "O=C(NC(=O)c1cc(Cl)ccc1O)Nc1ccc([N+](=O)[O-])cc1Cl", "note": "[Compound 20]", "inhibition at 500 µg/mL": "40 to 60"}, {"smiles": "O=C(NC(=O)c1c(Cl)cc(O)cc1Cl)Nc1ccc(Cl)c(Cl)c1", "note": "[Compound 21]", "inhibition at 500 µg/mL": "60 to 80"}, {"smiles": "Cc1cc(Cl)ccc1NC(=O)NC(=O)c1c(OCc2ccccc2)cccc1OCc1ccccc1", "note": "[Compound 22]", "inhibition at 500 µg/mL": "40 to 60"}, {"smiles": "CC(=O)Oc1cccc(Cl)c1C(=O)NC(=O)Nc1ccc(C(=O)c2ccccc2)cc1", "note": "[Compound 23]", "inhibition at 500 µg/mL": "80 to 100"}, {"smiles": "CC(=O)Oc1cc(Cl)ccc1NC(=O)NC(=O)c1c(F)cccc1F", "note": "[Compound 24]", "inhibition at 500 µg/mL": "80 to 100"}, {"smiles": "CC(=O)Oc1cc(C(F)(F)F)ccc1NC(=O)NC(=O)c1c(F)cccc1F", "note": "[Compound 25]", "inhibition at 500 µg/mL": "80 to 100"}, {"smiles": "O=C(NC(=O)c1c(F)cccc1F)Nc1ccc(O)c(C(F)(F)F)c1", "note": "[Compound 26]", "inhibition at 500 µg/mL": "80 to 100"}, {"smiles": "O=C(NC(=O)c1ccccc1Cl)Nc1ccc(O)c(C(F)(F)F)c1", "note": "[Compound 27]", "inhibition at 500 µg/mL": "40 to 60"}, {"smiles": "O=C(NC(=O)c1ccccc1Cl)Nc1ccc(O)cc1OC(F)(F)F", "note": "[Compound 28]", "inhibition at 500 µg/mL": "80 to 100"}, {"smiles": "CC(=O)Oc1cc(C(F)(F)F)ccc1NC(=O)NC(=O)c1ccccc1Cl", "note": "[Compound 29]", "inhibition at 500 µg/mL": "40 to 60"}, {"smiles": "CC(=O)Oc1cc(OC(F)(F)F)ccc1NC(=O)NC(=O)c1ccccc1Cl", "note": "[Compound 30]", "inhibition at 500 µg/mL": "40 to 60"}, {"smiles": "O=C(NC(=O)c1c(F)cccc1F)Nc1ccc(Oc2ccc(Cl)cc2)c(Cl)c1", "note": "[Compound 31]", "inhibition at 500 µg/mL": "40 to 60"}, {"smiles": "CNC(=O)Oc1ccccc1NC(=O)NC(=O)c1c(Cl)cccc1Cl", "note": "[Compound 32]", "inhibition at 500 µg/mL": "60 to 80"}, {"smiles": "O=C(NC(=O)c1c(Cl)cccc1Cl)Nc1cccc(OC(=O)Nc2ccccc2)c1", "note": "[Compound 33]", "inhibition at 500 µg/mL": "80 to 100"}, {"smiles": "O=C(NC(=O)c1ccccc1Cl)Nc1ccc(OC(=O)Cc2ccc(Cl)cc2)c(Cl)c1", "note": "[Compound 34]", "inhibition at 500 µg/mL": "40 to 60"}, {"smiles": "CCOC(=O)COc1ccc(NC(=O)NC(=O)c2c(F)cccc2F)cc1C(F)(F)F", "note": "[Compound 35]", "inhibition at 500 µg/mL": "60 to 80"}, {"smiles": "Cc1ccccc1C(=O)NC(=O)Nc1ccc(O)cc1", "note": "[Compound 36]", "inhibition at 500 µg/mL": "60 to 80"}, {"smiles": "CC(C)(C)c1cc(NC(=O)NC(=O)c2ccccc2Cl)cc(C(C)(C)C)c1O", "note": "[Compound 37]", "inhibition at 500 µg/mL": "80 to 100"}, {"smiles": "O=C(NC(=O)c1c(O)cccc1Cl)Nc1ccc(Cl)c(O)c1", "note": "[Compound 38]", "inhibition at 500 µg/mL": "60 to 80"}, {"smiles": "CC(=O)Oc1cc(NC(=O)NC(=O)c2c(Cl)cccc2OC(C)=O)ccc1Cl", "note": "[Compound 39]", "inhibition at 500 µg/mL": "80 to 100"}, {"smiles": "CC(=O)Oc1cccc(Cl)c1C(=O)NC(=O)Nc1ccc(O)cc1", "note": "[Compound 40]", "inhibition at 500 µg/mL": "60 to 80"}, {"smiles": "CC(=O)Oc1cccc(Cl)c1C(=O)NC(=O)Nc1cc(C)ccc1O", "note": "[Compound 41]", "inhibition at 500 µg/mL": "80 to 100"}, {"smiles": "CC(=O)Oc1cccc(Cl)c1C(=O)NC(=O)Nc1ccc([N+](=O)[O-])cc1O", "note": "[Compound 42]", "inhibition at 500 µg/mL": "80 to 100"}, {"smiles": "CC(=O)Oc1ccc(C)cc1NC(=O)NC(=O)c1c(Cl)cccc1OC(C)=O", "note": "[Compound 43]", "inhibition at 500 µg/mL": "80 to 100"}, {"smiles": "CCCCOC(=O)c1ccc(NC(=O)NC(=O)c2c(Cl)cccc2OC(C)=O)cc1O", "note": "[Compound 44]", "inhibition at 500 µg/mL": "60 to 80"}, {"smiles": "CC(=O)Oc1cccc(Cl)c1C(=O)NC(=O)Nc1cc(Br)cc(Br)c1O", "note": "[Compound 45, 1-(2-acetoxy-6-chlorobenzoyl)-3-(2-hydroxy-3,5-dibromophenyl)urea]", "inhibition at 500 µg/mL": "80 to 100"}, {"smiles": "CC(=O)Oc1cccc(Cl)c1C(=O)NC(=O)Nc1ccc(O)c(C(C)=O)c1", "note": "[Compound 46]", "inhibition at 500 µg/mL": "80 to 100"}, {"smiles": "CC(=O)Oc1ccc(NC(=O)NC(=O)c2cc(C(C)(C)C)c(O)c(C(C)(C)C)c2)cc1", "note": "[Compound 47]", "inhibition at 500 µg/mL": "60 to 80"}, {"smiles": "CC(=O)Oc1ccc(C(=O)NC(=O)Nc2ccc(O)cc2)cc1Cl", "note": "[Compound 48]", "inhibition at 500 µg/mL": "60 to 80"}, {"smiles": "CC(=O)Oc1ccccc1C(=O)NC(=O)Nc1cc(Cl)c(O)c(Cl)c1", "note": "[Compound 49]", "inhibition at 500 µg/mL": "80 to 100"}, {"smiles": "O=C(NC(=O)c1c(F)cccc1F)Nc1ccccc1S", "note": "[Compound 50]", "inhibition at 500 µg/mL": "80 to 100"}, {"smiles": "CC(=O)Oc1ccccc1NC(=S)NC(=O)c1ccccc1", "note": "[Compound 51]", "inhibition at 500 µg/mL": "60 to 80"}, {"smiles": "CSc1cccc(Cl)c1C(=S)NC(=S)Nc1ccc(Cl)cc1", "note": "[Compound 52]", "inhibition at 500 µg/mL": "80 to 100"}, {"smiles": "O=C(NC(=S)Nc1cccc(O)c1)c1ccc(Cl)cc1Cl", "note": "[Compound 53]", "inhibition at 500 µg/mL": "80 to 100"}, {"smiles": "O=C(NC(=O)c1ccccc1OCc1ccccc1)Nc1ccc(Cl)cc1", "note": "[Compound 54, 1-(2-benzyloxybenzoyl)-3-(4-chlorophenyl)urea]", "inhibition at 500 µg/mL": "20 to 40"}, {"smiles": "O=C(NC(=O)c1c(F)cccc1F)Nc1cc(Cl)c(C(=O)c2ccc(Cl)cc2)c(Cl)c1", "note": "[Compound 55]", "inhibition at 500 µg/mL": "40 to 60"}, {"smiles": "CC(=O)Oc1ccc(C(=O)NC(=O)Nc2ccc(O)c(C(F)(F)F)c2)cc1Cl", "note": "[Compound 56]", "inhibition at 500 µg/mL": "40 to 60"}, {"smiles": "O=C(NC(=O)c1c(F)cccc1F)Nc1ccc(OC(=O)Oc2ccc(Cl)cc2)cc1", "note": "[Compound 57]", "inhibition at 500 µg/mL": "20 to 40"}]}]}
